US7473682B2, “Angiogenic peptides and uses thereof” (Ramot at Tel Aviv University Ltd., priority 2003, dated 2009)
“Also recorded” adds a separate entry of the source.

Columns and labels:
VEGF-A = assay: Real time PCR gene expression in MVECs, VEGF-A; assay type: cell-based; set-up: key: increased (+); non-increased (−); conditions: 1 ng/ml peptide
Description: (§1) Real Time PCR—MVECs from passage 3 were incubated for 24 hours in EBM-MV supplement-free medium (starving media). Following starvation, 1 ng/ml of synthetic peptides LT, QF, SP, TR, YR, and VL and 10 ng/ml of VEGF were added to the plates. Following 1.5 or 6 hours of incubation, total RNA was extracted using TRIsol reagent (Invitrogen Life Technologies, Carlsbad Calif., USA) and 0.8 μg of the extracted RNA was used as a template for reverse transcription (Invitrogen) using random primers (SuperScript III First-Strand Synthesis System for RT-PCR (hvitrogen, Carlsbad Calif., USA) according to the manufacturer's instructions. Resulting cDNAs were subjected to real time PCR amplification using the ABI prism 7000 Sequence Detection System (Applied Biosystems, Foster City, Calif., USA). Oligonucleotide primers were designed using Primer Express Software (Applied Biosystems, Foster City, Calif., USA) according the translated region of VEGF-A (Accession No:NM_003376), VEGF-C (Accession No:NM_005429), KDR (Accession No:NM_002253), FLT-1 (Accession No:NM_002019), HIF-α (Accession No:HSU22431), and GAPDH (Accession No:NM_002046) and are listed in Table 6, hereinbelow. Briefly, a reaction mixture of 20 μl consisting of DDW, oligonucleotide primers (500 nM), cDNA (3 μl), and SYBR Green PCR master kit (Applied Biosystems, Foster City, Calif., USA) was subjected to an amplification program of 15 seconds at 95° C., and 60 seconds at 60° C. for 40 cycles. Results were analyzed using the Sequence Detector Software Version 1 (Applied Biosystenis).
(§2) Peptides effect on gene expression in MVECs—The effect of the synthetic peptides on the expression in MVECs of selected genes (VEGF-A, VEGF-C, KDR, FLT-1 and HIF-1α) related to the VEGF pathway (a major pathway that participated in angiogenic process) was tested. Synthetic peptides were added at 1 ng/ml for 1.5 and 6 hours. After incubation with peptide, RNA was extracted from MVECs and Real Time PCR was performed. Gene expression was calculated as peptide/control (cells without peptide treatment) ratio.

mouse ischemic hind limb [1] = assay: Mouse ischemic hind limb model, blood perfusion (Laser Doppler Imager); assay type: in vivo; conditions: 14 and 19 days following peptide injection; for The blood perfusion ratio (in percentages) of the ischemic vs. control limbs, Mean: 10 μg
Description: (§3) Mouse ischemic hind limb model—Ischemia was created in the mouse left hind limb by ligation of the femoral artery. The right hind limb served as control. A day after the operation each of the peptides was injected into one site close to the ligation and one site distal to the ligation. Each mouse was treated with each of the peptides in a total amount of 10 μg.
Blood perfusion in ischemic mice—The percent of blood perfusion was measured using a Laser Doppler Imager (PeriMed, Sweden) at 14 and 19 days after peptides injections. The average percent perfusion of each limb was computed and expressed as the ischemic (left)/control (right) blood perfusion ratio.

FLT-1 = assay: Real time PCR gene expression in MVECs, FLT-1; assay type: cell-based; set-up: key: increased (+); non-increased (−); conditions: 1 ng/ml peptide
Description: as §1, §2

HIF-1α = assay: Real time PCR gene expression in MVECs, HIF-1α; assay type: cell-based; set-up: key: increased (+); non-increased (−); conditions: 1 ng/ml peptide
Description: as §1, §2

[2] = test system: ears of nude mice and Balb/C mice; assay: In vivo angiogenesis in a mouse-ear model; conditions: for Number of blood vessels: 10 μg/ear, 5 days after inoculation; for Peptide/PBS = ratio between the No. of blood vessels in the peptide-injected ear and in the PBS-injected ear: mouse ears, contralateral ear PBS; for Number of blood vessels in the ears of injected mice (photographs): 10 μg peptide, subcutaneous injection into ear
Description: In Wivo angiogenesis in a mouse-ear model—Ear angiogenesis studies were a modification of an approach described previously (Pettersson, 2000). […] Contralateral ears were injected only with PBS. […] Two days after peptide inoculation, angiogenic effect of peptides could be observed.
Histological sections—Histological sections of the mouse-ears injected with the angiogenic peptides were performed by fixing tissues in 4% buffered formalin. Sections were embedded in paraffin blocks sectioned in 4 μm thick layers and stained with hematoxolin-eosin.

KDR = assay: Real time PCR gene expression in MVECs, KDR; assay type: cell-based; set-up: key: increased (+); non-increased (−); conditions: 1 ng/ml peptide
Description: as §1, §2

MVECs = assay: MVEC migration assay with synthetic peptides; assay type: cell-based; conditions: 5 hours; for MVECs migration, direct activation by peptides: 1 ng/ml; for Increase in MVECs migration, peptides as chemoattractants: 10 ng/ml
Description: MVEC migration was evaluated as described above except that MVECs from passage 3 were incubated in EBM-MV SFM. […] The presence of migratory cells was detected using the fluorescent ELISA reader at 480/520 nm (Fluostar BMG Lab Teck) as described in Example 2, hereinabove. […]

mouse ischemic hind limb [3] = assay: Mouse ischemic hind limb model, physiological observations (ladder climbing); assay type: in vivo; set-up: key: 1 = walk and climb ... 4 = walk with difficulty, cannot climb; conditions: mean score of 10 mice, 10 μg; for Physiological score (ability to climb a ladder) Day 1: 1 = walk and climb ... 4 = walk with difficulties and cannot climb, day 1 post operation; for Physiological score (ability to climb a ladder) Day 4 / Physiological score (ability to climb a ladder) Day 7 / Physiological score (ability to climb a ladder) Day 10: scale 1-4; for Physiological score (ability to climb a ladder) Day 4: day 4 post operation; for Physiological score (ability to climb a ladder) Day 7: day 7 post operation; for Physiological score (ability to climb a ladder) Day 10: day 10 post operation
Description: as §3
Physiological observations—Ischemic mice were evaluated for their ability to climb a ladder on day 1, 4, 7, and 10-post operation. The scoring system was as follows: 1—walk and climb; 2—walk and climb with some difficulty, 3—walk and cannot climb the ladder; 4—walk with difficulties and cannot climb the ladder.

HUVECs (ECs) = assay: Tube formation assay, ECs (HUVECs); assay type: cell-based, human; conditions: for EC tube formation compared to untreated cells: normoxic conditions, 10 ng/ml, matrigel
Description: Tube formation assay—ECs from passage 3 or MVECs from passage 4 were harvested with trypsin and incubated for 24 hours in SFM. Twenty-four—well plates were pre-coated with 250 μl of Cultrex Basement Membrane Extract with reduced growth factors (R&D Systems, Minneapolis, Minn., USA). Five hundred microliters of medium containing 10^6 cells were transferred to the coated wells. Synthetic peptides, FGF, YR, QF, or VL were added to ECs, and VEGF, YR, QF, or VL were added to MVECs at 10 ng/ml. Plates were incubated for 24 hours at 37° C. in the presence of 5% CO2. HUVECs and MVECs were photographed under a light microscope at 20 hours and 8 hours, respectively.
Tube formation assay after and under hypoxia treatment—Tube formation assay was performed as described in Example 3, hereinabove, except that the cells were divided to 3 groups: control cells, cells after exposure to hypoxia conditions, and cells on matrigel basement that form tubes under hypoxia treatment.

| Sequence | VEGF-A Expression after 1.5 hours (VEGF-A) | VEGF-A Expression after 6 hours (VEGF-A) | The blood perfusion ratio (in percentages) of the ischemic vs. control limbs, Mean (mouse ischemic hind limb [1]) [percentages] | FLT-1 Expression after 1.5 hours (FLT-1) | HIF Expression after 1.5 hours (HIF-1α) | HIF Expression after 6 hours (HIF-1α) | Number of blood vessels [2] | Peptide/PBS = ratio between the No. of blood vessels in the peptide-injected ear and in the PBS-injected ear [2] | KDR Expression after 6 hours (KDR) | MVECs migration, direct activation by peptides (MVECs) [folds] | Increase in MVECs migration, peptides as chemoattractants (MVECs) [fold] | Physiological score (ability to climb a ladder) Day 1 (mouse ischemic hind limb [3]) | Physiological score (ability to climb a ladder) Day 4 (mouse ischemic hind limb [3]) | Physiological score (ability to climb a ladder) Day 7 (mouse ischemic hind limb [3]) | Physiological score (ability to climb a ladder) Day 10 (mouse ischemic hind limb [3]) | EC tube formation compared to untreated cells (HUVECs (ECs)) | Percent of blood perfusion ratio, ischemic/control limb (significance) (mouse ischemic hind limb [1]) | FLT-1 Expression after 6 hours (FLT-1) | Number of blood vessels in the ears of injected mice (photographs) [2] | KDR Expression after 1.5 hours (KDR) | also measured |
| --- | --- | --- | --- | --- | --- | --- | --- | --- | --- | --- | --- | --- | --- | --- | --- | --- | --- | --- | --- | --- | --- |
| TLPWLEESYWRP (Phage displayed peptide) [TR] | + | − | 86.006 | + | + | + | 15 | 5.5 | + | 2.6 | 2 | 3.05 | 2.5 | 1.6 | 1.4 |  |  |  |  |  | Vascularization of mouse ear, histology sections ([2]; 10 μg, compared to control): large blood vessel formation and neovascularization |
| VPWMEPAYQRFL (Phage displayed peptide) [VL] | + | + | 95.560 | + | + | + | 14 | 5.6 | + |  | 2 | 2.75 | 2 | 1.6 | 1.4 | increased tube formation |  |  |  |  |  |
| YPHIDSLGHWRR (Phage displayed peptide) [YR] | + | − | 104.349 | + | − |  | 11 | 7.6 | − | 1.8 | 2.4 | 2.75 | 2.5 | 1.4 | 1 | increased tube formation | significant increase | − | increased number of blood vessels | + |  |
| QPWLEQAYYSTF (Phage displayed peptide) [QF] | + | − | 112.222 | + | + | − | 21 | 0.9 |  | 2.3 | 2.4 | 2.83 | 2 | 1.6 | 1.2 | increased tube formation; also recorded: significant increase in tube formation | significant increase | − | increased number of blood vessels | + |  |
| SAHGTSTGVPWP (Phage displayed peptide) | + |  | 84.478 | + |  |  | 15 | 1 |  | 2.1 | 2 | 2.85 | 2.25 | 1.75 | 1.6 | did not induce tube formation |  |  | increased number of blood vessels | + | EC tube formation under hypoxia (HUVECs (ECs); under hypoxia conditions, 18 hours): effective only in tube formation under hypoxia conditions |
| LLADTTHHRPWT (Phage displayed peptide) [LT] | + |  | 78.275 | + | − | − | 18 | 3 |  |  | 3.5 | 3.07 | 2.25 | 1.6 | 1.2 | did not induce tube formation |  |  | increased number of blood vessels | − |  |
